# “And” between values parts separate entries of the source, which are not always exact repeats. Equal entries are not always repeated.
# Legend:
# [1] = system: WI-38 (lung fibroblast); experiment: SRB short-term cytotoxicity assay, WI-38; type: cell-based; settings: Homo sapiens, 96 h
# Procedure: Short-term anti-proliferative assays were carried out by two different assays using a panel of human cancer and non-malignant human cell lines. […] The transformed human embryonic kidney cell line HEK293T (wt KRAS) was sensitive to all tested drugs, including TMPyP4, a cationic porphyrin established as a G4 ligand, as well as the anticancer drug 5-fluorouracil (5-FU).
# Human cell lines, breast carcinoma (MCF7), lung carcinoma (A549), pancreatic cancer (MIA PaCa2, Panc-1), immortalised telomerase-negative human lung fibroblast (ALT) and normal human lung fibroblast (WI-38), were all purchased from American Type Cell Culture (ATCC). Cell lines were maintained in appropriate medium supplemented with 10% fetal bovine serum (Invitrogen, UK), 2 mM L-glutamine (Invitrogen, Netherlands), and other components as specified by the suppliers. All cell lines were maintained at 37°C, 5% CO2, and routinely passaged. Short-term growth inhibition was measured using the SRB assay as described previously[43] (additional details described in Supplementary Information). […]
# Sulforhodamine B (SRB) short-term cytotoxicity assay
# Cells were seeded at appropriate densities into the wells of 96 well plates in their corresponding medium and incubated overnight to allow the cells to attach. Subsequently cells were exposed to various concentrations of freshly made solutions of drugs and incubated for 96 h. The cells were subsequently fixed with ice-cold trichloacetic acid (TCA) (10%, w/v) for 30 min and stained with 0.4% SRB dissolved in 1% acetic acid for 15 min.
# All incubations were carried out at room temperature except for TCA fixation, which was at 4 °C. The IC50 value, the concentration required to inhibit cell growth by 50%, was determined from the mean absorbance at 540 nm for each drug concentration expressed as a percentage of the control untreated well absorbance. (Performed at School of Pharmacy, University College of London). […]
# (#sc-30/sc-126; Santa Cruz Biotechnology Inc., Santa Cruz, CA, USA). […]
# [2] = system: KRAS21R G4; experiment: Spectrofluorimetric titration with KRAS21R G4; type: binding, human; settings: for Apparent association constant Ka (KRAS21R): ligand 1 μM, K-cacodylate pH 7.4, 60 mM K+, 25°C; for Hill constant h (KRAS21R): one-site saturation binding Hill slope model
# Procedure: To characterize the binding of IQc to DNA structures, spectrofluorimetric titration assays were performed with the non-substituted (2a), mono-alkyldiamine (2d) and di-alkyldiamine (3e) derivatives using un-labelled KRAS21R G4 and 26ds-DNA. […] Their fluorescence intensity was proportional to concentration up to 10 μM. […] The fluorescence titration data (Figure 4) was fitted to the Scatchard model[25] (Figure 4, insets). […] Scatchard plots of 2d and 3e (Figure 4b–c, insets) are all concave-down nonlinear curves, which may denote different positive cooperative binding sites in G4, with more than one equivalent and non-independent binding sites. […] Therefore, association constants for 2d and 3e were obtained from the one-site saturation binding Hill slope model (Figure 4b–c). These are apparent binding constants, i.e. they are macroscopic Ka which reflect the total binding.
# Figure 4 Fluorescence data of (a) 2a, (b) 2d, and (c) 3e (1 μM) in K-cacodylate buffer (pH 7.4, containing 60 mM K^+) at 25°C, titrated with KRAS21R and HT21 G4s, and 26ds, fitted to the saturation binding equations and Scatchard model (insets).
# Fluorescence data were collected with a λex of 290 nm and a λem around 475 nm for 2d and 3e, and a λex of 275 nm and a λem around 460 for 2a. Test compounds were prepared as 1 mM in HPLC-grade water (10% DMSO) stock solutions. The rest of the dilutions were performed using K-cacodylate buffer (pH = 7.4, containing 60 mM K^+). The G4 single-strand oligonucleotide sequences were initially diluted from the storage solution (100 μM) with K-cacodylate, to a stock solution at 25 μM. The titration data were obtained by adding aliquots of previously annealed G4 (heating to 95°C for 10 min, followed by slow cooling to RT) to a solution of the indolo[3,2-c]quinoline ligand (1 μM) in K-cacocylate buffer at 25°C (additional details in Supplementary Information).
# Figure S7. Fluorescence titrations of 1 μM indolo[3,2-c]quinoline 2d (1µM) with KRAS21R G4 and 26ds DNA in K-cacodylate buffer pH 7.4, containing 60 mM K+ at 25 °C.
# Concentration of DNA increase from the top to the bottom (grey lines) Excitation […]
# Figure S8. Fluorescence titrations of 1 μM indolo[3,2-c]quinoline 3e (1µM) with KRAS21R […]
# The titration data obtained were used to construct Scatchard plots with the concentration of bound and free ligand (Cb and Cf, respectively). […]
# number of moles of ligand bound to 1 mol of G4 (r = Cb/CDNA) were calculated.
# Saturation binding isotherms were represented as Scatchard plots, by plotting r/Cf versus r and evaluated according to the model of McGhee and von Hippel. Dissociation constants were determined by fitting the titration experimental data to one-site saturation binding equation or to one-site saturation binding to the Hill slope equation supplied with the GraphPad PRISM software (GraphPad, Version 5.00, San Diego, CA).
# Association constants (Ka) were calculated from dissociation constants (Kd). Scatchard lines represented in the Scatchard plots were calculated from the data fitting to the binding equations (x = 0, y = Fmax/Kd; x = Fmax , y = 0; slope = -Ka). […]
structure (smiles),measurement,setting,value
CCN(CC)CCCNc1ccc2c(c1)[nH]c1c2c[n+](C)c2ccc(NCCCN(CC)CC)cc12.[Cl-] [3e],IC50,[1],10.1 µM
same,Apparent association constant Ka (KRAS21R),[2],8.6e+06 M⁻¹
same,Hill constant h (KRAS21R),[2],2.4
CCN(CC)CCCNc1ccc2c(c1)c1[nH]c3ccccc3c1c[n+]2C [2d],IC50,[1],4.86 µM
same,Apparent association constant Ka (KRAS21R),[2],4.4e+06 M⁻¹
same,Hill constant h (KRAS21R),[2],2.0
"Cn1cc2c3ccccc3nc-2c2cc(Br)ccc21 [2a, 2-bromo-5-methyl-indolo[3,2-c]quinoline]",IC50,[1],6.26 µM
same,Apparent association constant Ka (KRAS21R),[2],1.7 × 10^6 M^−1 and 1.7/-- × 10^6 M^−1
